Test system: hMECs transformed with MECP2
Assay: growth inhibition of hMECs transformed with MECP2 compared with isogenic cells transformed by activated RAS
Type: cell-based, human
Source text: Because MECP2 only binds to methylated CpG sequences and hydroxymethylcytosine, and because data have shown that oncogenic activation of MECP2 depends upon its DNA-binding region, […] it is likely that the oncogenic activity of MECP2 is mediated by binding of the protein to methylated CpG sequences of hydroxymethylated cytosine. For this reason, it was investigated whether DNA methylation inhibitors hinder cell growth in a MECP2-dependent manner. DNA methylation inhibitors prevent the formation of both methylated CpG sequences and hydroxymethylated cytosine.
MECP2 is known to be present in a complex with Class I histone deacetylases. […] This led to investigation of whether MECP2-transformed cells were particularly vulnerable to HDAC inhibitors. […] Furthermore, it was shown that combined treatment with the DNA methylation inhibitor 5-azacytdine and the HDAC inhibitor Trichostatin A is synergistic in a hMEC experimental system.

Row | SMILES | sensitivity of hMECs transformed with MECP2 relative to isogenic cells transformed by activated RAS (DNA methylation inhibitors, MECP2-transformed vs activated RAS-transformed isogenic hMECs) | susceptibility of MECP2-transformed cells relative to isogenic cells transformed by activated RAS (HDAC inhibitor, MECP2-transformed vs activated RAS-transformed isogenic cells)
1 | Nc1ncn([C@@H]2O[C@H](CO)[C@@H](O)[C@H]2O)c(=O)n1 [5-azacytidine] | an order of magnitude more sensitive | –
2 | CC(/C=C/C(=O)NO)=C\[C@@H](C)C(=O)c1ccc(N(C)C)cc1 [Trichostatin A] | – | an order of magnitude more susceptible
